# Legend:
# [1] = 4 mg of pitavastatin; cited from earlier work
# patients with stable CAD = experiment: Randomized open-label blinded-endpoint phase 4 trial, pitavastatin 4 mg/day vs 1 mg/day (Example 1); assay type: in vivo, human (Japanese patients)
# Description: This study was a prospective, multicenter, randomized, open-label, blinded-endpoint, physician-initiated phase 4 trial designed to investigate whether high-dose statin therapy could reduce CV events in patients with stable CAD as compared with low-dose statin therapy. We hypothesized that aggressive lipid lowering treatment with pitavastatin 4 mg/day would reduce the incidence of the composite endpoint comprised of CV death, non-fatal myocardial infarction (MI), non-fatal ischemic stroke, and unstable angina requiring emergency hospitalization. The control group received pitavastatin 1 mg/day.
# Men and women aged 20 to 80 years with clinically evident stable CAD and elevated LDL-C were eligible for this study. CAD was defined as 1) previous ACS, such as acute myocardial infarction or unstable angina; 2) a previous coronary revascularization procedure (PCI or coronary artery bypass grafting (“CABG”)); or 3) atherosclerotic CAD detected by coronary artery angiography with at least 75% stenosis in major epicardial coronary arteries (American Heart Association classification). (30) Patients with elevated LDL-C at entry were defined as (1) patients not receiving chronic lipid-lowering therapy with LDL-C≥140 mg/dL, (2) patients with LDL-C≥100 mg/dL and considered by the attending physician to need lipid-lowering therapy, or (3) patients being treated with lipid-lowering therapy.
# Exclusion criteria included (1) any planned coronary revascularization procedure, (2) active malignancy, (3) contraindication for pitavastatin (hypersensitivity to pitavastatin, severe liver disease or hepatic dysfunction, concurrent cyclosporine use, or suspected or confirmed pregnancy or current breastfeeding), (4) severe congestive heart failure (ejection fraction <30% or NYHA class ≥3), (5) current hemodialysis, (6) familial hypercholesterolemia, (7) current participation in another clinical trial, (8) current use of any prohibited drug (lipid-lowering drug other than pitavastatin) that could not be discontinued during the study, and (9) any other finding that would make the patient unsuitable for this study in the opinion of the investigators.
# Participants were recruited at 733 hospitals in Japan. During screening visits, informed consent and baseline medical history were obtained, and a clinical examination and laboratory testing were performed. Blood samples were collected to determine fasting lipid levels and the patient's standard clinical profile. After discontinuation of all previous lipid-lowering therapies, all eligible patients started receiving treatment with pitavastatin 1 mg/day on an open-label basis for at least 1 month (run-in period). At the end of the run-in period (week 0), those patients with LDL-C levels below 120 mg/dL, measured by a central laboratory using Friedwald's formula, were eligible for randomization. Patients with prior ACS or coronary revascularization could be randomized beyond 3 months after the index event. Randomization was not allowed for patients with poor adherence (less than 50%) for the study drug during the run-in period or for patients with the primary endpoint events during the run-in period.
# Patients were randomized in a 1:1 ratio to either pitavastatin 4 mg or pitavastatin 1 mg once daily. Randomized treatment assignment was stratified by 5 factors: 1) institution, 2) prior statin use, 3) age (<65 or ≤65), 4) diabetes, and 5) sex. Patients were to be followed for 3 years, and study visits were scheduled at 6 months for the first visit and every year thereafter. At each visit, information on vital signs, clinical endpoints, adverse events, and concurrent medication was collected. In addition, physical examinations and electrocardiograms were performed and blood specimens were collected at 6 months and every 12 months thereafter for lipid and other laboratory tests. […]
smiles,measurement,setting,value
O=C(O)C[C@H](O)C[C@H](O)/C=C/c1c(C2CC2)nc2ccccc2c1-c1ccc(F)cc1 [pitavastatin],reduction of LDL-C from baseline,[1],42.9%
same,"incidence rates of individual CV events: death from any cause, myocardial infarction, and coronary revascularization","patients with stable CAD; 1 mg and 4 mg pitavastatin groups, FIG. 8",positive
same,LDL-C,"patients with stable CAD; patients converted from 1 mg dose to 4 mg dose of pitavastatin, FIG. 2",statistically significant reduction
same,HDL-C,"patients with stable CAD; patients converted from 1 mg dose to 4 mg dose of pitavastatin, FIG. 3",numerically superior increase
same,TG,"patients with stable CAD; patients converted from 1 mg dose to 4 mg dose of pitavastatin, FIG. 4",statistically significant reduction
same,hs-CGP,"patients with stable CAD; patients converted from 1 mg dose to 4 mg dose of pitavastatin, FIG. 5",statistically significant reduction
same,"primary clinical endpoint (composite of CV death, MI, ischemic stroke and UA)","patients with stable CAD; patients converted from 1 mg dose to 4 mg dose of pitavastatin, FIG. 6",statistically significant reduction
same,secondary clinical endpoint (primary endpoint+coronary revascularization),"patients with stable CAD; patients converted from 1 mg dose to 4 mg dose of pitavastatin, FIG. 7",statistically significant reduction
same,effect of LDL-C status (≥95 mg/dL or <95 mg/dL) on incidence rates for the primary endpoint,"patients with stable CAD; subgroup analysis, 1 mg vs 4 mg pitavastatin, FIG. 9",did not affect the results
